Where two headings read alike, the source gives them in different places.
How the values were obtained:
Male C57/B16 mice [1] = tested on: Male C57/B16 mice
From the text: This system uses features derived from mouse behavioral data to classify compounds for their ability to treat neuro-psychiatric symptoms by comparing the features to a proprietary reference database of behavioral feature sets that are linked to classes of marketed drugs known to treat neuro-psychiatric symptoms. Thus the system can be used as a model to identify the psychiatric effect of a compound by comparing the effects of the compounds against drugs with known validated effects.
Once all features are extracted from the raw data through an automated pipeline, proprietary bioinformatics algorithms are used to decorrelate groups of features and find the combination of values that best separate different groups of interest.
SmartCube reference data used herein include anti-psychotics tested at several dose ranges. […] Anti-psychotics, when administered at higher doses, can engage additional receptor systems and thus affect mouse behavior differently.
Animals: Male C57/B16 mice (N=12 per group) from Taconic Laboratories were used. Upon receipt, mice were group-housed in OPTI mouse ventilated cages with 4 mice per cage. Mice were acclimated to the colony room for at least one week prior to test and subsequently tested at approximately 8-9 weeks of age. All animals were examined, handled, and weighed prior to initiation of the study to assure adequate health and suitability and to minimize non-specific stress associated with manipulation.
Treatment: 7 groups (N=12 per group)
All compounds tested were formulated in NP3 (vehicle solution): 5% Pharmasolve; 30% P3 (1:1:1 PEG200:PEG400:propylene glycol); 65% saline; pH is 5.1-6.
All SmartCube runs were conducted with NP3 as vehicle and under identical settings. […] Test compounds were injected intraperitoneally (IP) for 15 min before animals were placed in SmartCube for assessment.
The results for the class analyses are presented as standardized bar charts with percentages that sum to 100 for each dose. The percentage indicates the probability the classifier can differentiate between the vehicle group and test group. […]

Male C57/B16 mice [2] = conditions: reference data from Psychogenics, cited from earlier work

SMILES | SmartCube class signature (Male C57/B16 mice [1]; IP, 1, 2 and 5 mcg/kg) | SmartCube class signature (Male C57/B16 mice [1]; IP, 10, 20 and 50 mcg/kg (0.01, 0.02, 0.05 mg/kg), 15 min before test) | SmartCube class signature (Male C57/B16 mice [1]; IP, higher doses) | SmartCube class signature (Male C57/B16 mice [2]; higher doses) | SmartCube class signature (Male C57/B16 mice [2]; therapeutically effective doses)
Cc1cccc([C@H](C)c2cnc[nH]2)c1C [Dexmedetomidine, (+) 4-(S)-[1-(2,3-dimethylphenyl)ethyl]-1H-imidazole] | cannot distinguish the mouse behaviour from behaviour of mice on vehicle | antipsychotic signature | high dose of anti-psychotic |  | 
N=C(N)NC(=O)Cc1c(Cl)cccc1Cl [Guanfacine] |  |  |  | high dose anti-psychotic | unable to assign signature

Source: US20240024289A1, “TREATMENT OF BIPOLAR DISORDERS AND PSYCHOSIS USING DEXMEDETOMIDINE HYDROCHLORIDE” (BioXcel Therapeutics, Inc., priority 2020, published 2024)
